Test results from paper PMC12210912, “Pharmacologic properties and inhibitory activity of 6-azasteroids against Mycobacterium leprae in vivo and in vitro” (Microbiology Spectrum, 2025).

How the values were obtained:
M. leprae = tested on: M. leprae; design: method as in PMID 34395315; settings: cited from earlier work
[1] = tested on: human type 1 5α-reductase; design: method as in PMID 8057283; settings: cited from earlier work
Glucocorticoid Receptor = target: T1, Glucocorticoid Receptor (Homo sapiens, UniProt P04150); test: glucocorticoid receptor radioligand binding inhibition; settings: [3H]dexamethasone binding, IM-9 cells cytosol
T1 construct: (i) GR (human) IM-9 cells (cytosol); host or cells: IM-9 cells (cytosol)
T1 sequence (P04150 1-777): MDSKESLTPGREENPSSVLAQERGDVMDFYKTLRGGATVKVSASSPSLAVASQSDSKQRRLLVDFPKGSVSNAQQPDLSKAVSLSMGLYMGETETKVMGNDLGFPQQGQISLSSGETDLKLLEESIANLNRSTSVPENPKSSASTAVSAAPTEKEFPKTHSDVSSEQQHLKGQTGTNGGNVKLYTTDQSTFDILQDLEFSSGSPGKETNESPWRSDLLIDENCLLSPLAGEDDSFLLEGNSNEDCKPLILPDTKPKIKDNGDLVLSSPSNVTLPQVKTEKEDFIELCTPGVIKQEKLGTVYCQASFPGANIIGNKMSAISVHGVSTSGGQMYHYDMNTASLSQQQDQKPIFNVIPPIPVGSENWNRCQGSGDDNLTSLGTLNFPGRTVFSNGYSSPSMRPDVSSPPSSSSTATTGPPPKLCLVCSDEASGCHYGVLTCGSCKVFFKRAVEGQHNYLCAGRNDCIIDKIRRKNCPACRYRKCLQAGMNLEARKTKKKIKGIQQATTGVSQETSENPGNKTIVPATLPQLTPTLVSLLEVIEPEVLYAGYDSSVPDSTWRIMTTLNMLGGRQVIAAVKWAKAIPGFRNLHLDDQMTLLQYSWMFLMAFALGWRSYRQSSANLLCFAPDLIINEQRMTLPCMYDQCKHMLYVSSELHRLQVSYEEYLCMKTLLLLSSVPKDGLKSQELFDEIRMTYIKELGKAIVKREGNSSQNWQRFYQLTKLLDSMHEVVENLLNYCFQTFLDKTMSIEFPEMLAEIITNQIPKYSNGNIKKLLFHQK
Procedure: (§1) Four nuclear receptors: glucocorticoid, androgen, LXRα, and LXRβ were assayed. Inhibition of agonist binding to each of the receptors was carried out following a standard protocol by Eurofins, Inc., USA. Compounds were tested at 10 µM. Compound binding was measured by scintillation counting and was calculated as a % inhibition of the binding of a radioactively labeled ligand specific for each target. Percent inhibition of control specific binding was expressed as
(§2) 100−[(measured specific binding)/(control specific binding)∗100]
(§3) where measured specific binding is the amount of radioactive ligand binding obtained in the presence of test compounds.
(§4) (iii) LXRα (human) recombinant protein expressed in E. coli; agonist radioligand 20 nM [^3H] […] (iv) LXRβ (human) recombinant protein expressed in E. coli; agonist radioligand 20 nM [^3H]

in vivo = settings: female, Balb/c, mouse, po, 100 mg/kg
Procedure: Compound 5 was solubilized in 5% DMSO in 10% Solutol with 100 mM citrate buffer (pH 3) and was tested in Balb/c female mice, approximately 8 weeks old and 20 g, at 100 mg/kg with or without 10 mg/kg rifampicin. Mice (n = 3 per group) were treated PO with drug or vehicle once daily at 8 AM. Body weights were measured daily prior to dosing. […] On day 5, mice were sacrificed at 6 h post-dose, and whole blood and plasma were extracted for complete blood count and blood chemistry profiling on an Element HT5 system (Heska, USA) and plasma drug concentration analysis was performed by LC-MS (Sciex API 4500 Triple Quad, Shimadzu LC-30A). Calibration curves were prepared as described above for in vivo metabolism and pharmacokinetics.

Androgen Receptor = target: T2, Androgen Receptor (Homo sapiens, UniProt P10275, T878A); test: androgen receptor radioligand binding inhibition; settings: [3H]methyltrienolone binding, LNCaP cells cytosol
T2 construct: (ii) AR (human) LNCaP cells (cytosol); host or cells: LNCaP cells (cytosol)
T2 sequence (P10275 1-920 T878A): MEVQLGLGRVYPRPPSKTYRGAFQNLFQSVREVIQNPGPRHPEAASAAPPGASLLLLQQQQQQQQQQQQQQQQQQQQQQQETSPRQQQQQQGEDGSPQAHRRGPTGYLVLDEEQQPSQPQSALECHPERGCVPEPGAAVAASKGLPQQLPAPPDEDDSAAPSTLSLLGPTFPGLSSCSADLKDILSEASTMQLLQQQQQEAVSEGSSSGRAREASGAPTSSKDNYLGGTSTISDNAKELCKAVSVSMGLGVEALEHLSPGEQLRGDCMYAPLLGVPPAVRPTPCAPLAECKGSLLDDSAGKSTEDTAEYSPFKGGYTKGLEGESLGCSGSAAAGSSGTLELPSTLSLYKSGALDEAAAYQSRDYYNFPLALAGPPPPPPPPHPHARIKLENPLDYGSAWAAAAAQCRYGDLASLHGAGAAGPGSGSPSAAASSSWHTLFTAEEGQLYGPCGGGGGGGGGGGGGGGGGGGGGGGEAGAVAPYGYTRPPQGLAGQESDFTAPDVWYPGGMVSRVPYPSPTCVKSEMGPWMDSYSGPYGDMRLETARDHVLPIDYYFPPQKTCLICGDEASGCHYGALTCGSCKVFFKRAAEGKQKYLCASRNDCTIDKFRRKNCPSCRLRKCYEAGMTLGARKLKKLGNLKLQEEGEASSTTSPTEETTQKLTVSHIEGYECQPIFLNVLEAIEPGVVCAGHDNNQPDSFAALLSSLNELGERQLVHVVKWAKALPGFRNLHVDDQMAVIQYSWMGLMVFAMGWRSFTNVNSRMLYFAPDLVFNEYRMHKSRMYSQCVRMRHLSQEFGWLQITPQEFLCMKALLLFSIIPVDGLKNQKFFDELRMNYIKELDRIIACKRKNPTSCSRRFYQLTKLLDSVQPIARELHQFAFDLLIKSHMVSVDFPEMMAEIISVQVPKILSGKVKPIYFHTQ
Procedure: as §1, §2, §3, §4

Row | SMILES | intracellular viability of M. leprae in vitro (M. leprae) | inhibition of human type 1 5α-reductase [1] | % inhibition observed, Glucocorticoid Receptor (Glucocorticoid Receptor; 10 µM) | inhibition at 10 µM (Glucocorticoid Receptor; read-out: % inhibition observed, Glucocorticoid Receptor) [%] | concentration at 6 h (in vivo) [µM] | % inhibition observed, Androgen Receptor (Androgen Receptor; 10 µM) | inhibition at 10 µM (Androgen Receptor; read-out: % inhibition observed, Androgen Receptor) [%]
1 | CC(C)(C)c1ccc(C(C)(C)C)c(NC(=O)C2CCC3C4CNC5=CC(=O)CC[C@]5(C)C4CC[C@]23C)c1 (stereo partly shown) [Compound 1] | reduce the intracellular viability of M. leprae in vitro |  |  |  |  |  | 
2 | C[C@]12CCC3C(CNC4=CC(=O)CC[C@@]43C)C1CCC2C(=O)NC(c1ccc(F)cc1)c1ccc(F)cc1 (stereo partly shown) [Compound 5] |  | nanomolar inhibitor | moderate | 46.4 | 292 ± 59 | low binding | 9.1
